Entries after “also recorded” stand apart in the source; their conditions may differ. Read-outs that look alike come from different tables or passages of the source.
Assays:
[1] = system: Jurkat T-lymphocyte cells; experiment: Inhibition of Nef M1 peptide-induced mitochondrial depolarization/apoptosis in Jurkat cells (JC-1); assay type: cell-based, human; conditions: for EC50: JC-1; for protection against M1 (control drugs): data not shown
MDA-MB-231 cells [2] = experiment: Mitochondrial depolarization of MDA-MB-231 breast cancer cells (JC-1 stain); conditions: for depolarization of MDA-MB-231 cells in dose response (qualitative): Figure 10; for EC50 / inhibition at 100 µM: Homo sapiens; for inhibition at 100 µM: MDA-MB-231, read-out: inhibition (effect) reached in MDA-MB-231 depolarization assay; for depolarization of MDA-MB-231 cells (qualitative): at concentrations below 10 μM; for depolarization/apoptosis of MDA-MB-231 cells (qualitative): up to 100 μM
MDA-MB-231 cells [3] = conditions: Figure 8B, TUNEL
Procedure: (D) MDA-MB-231 cells mock treated were analyzed via TUNEL.
(§1) Cells were grown to 80% confluence in 35 mm plates, either untreated or treated with 10 ng/ml of Nef Motif1 or CXCR4 antagonists for 24 hours. The cells were washed twice in ice-cold PBS and then fixed in 4% paraformaldehyde 1 hour. TUNEL assay for apoptosis and microscopy were done as described previously.

HIV-1IIIB = experiment: MAGI antiviral (entry) assay with HIV-1IIIB in HeLa-derived MAGI-CCR5/CXCR4 cells; assay type: cell-based
Procedure: MAGI-CCR5/CXCR4 cells are derived from HeLa-CD4-LTR-β-gal cells. The cells have been engineered to express high levels of CD4 and CXCR4 and contain one copy of the HIV-1 LTR promoter driving expression of the β-galactosidase gene upon HIV-1 Tat transactivation. On the day preceding the assay, the cells are plated at 1 × 10^4 well and incubated at 37°C overnight. Total cell and viability quantification is performed using a hemacytometer and trypan blue exclusion.
The virus used for these tests is the CXCR4-tropic strain HIV-1IIIB. […] For each assay, a pre-titered aliquot of virus is removed from the freezer (−80°C) and allowed to thaw slowly to room temperature in a biological safety cabinet.
Compounds are evaluated at one or two concentrations (e.g., for initial screening) or in dose-response at six concentrations (triplicate wells/concentration). On the day of assay setup, compound dilutions are prepared at two-times (2×) the final required concentrations. Media used for plating the cells the day before assay setup is aspirated from the plates and replaced with 50 μL of the 2× compounds, followed by the addition of 50 μL of virus, which dilutes the compounds to the final 1X concentrations. Cell control wells (cells only) and virus control wells (cells plus virus) are included on each assay plate. Identical uninfected assay plates (virus replaced with media) are prepared for parallel cytotoxicity testing.
Once HIV-1 has attached and entered the MAGI-CXCR4 cells, HIV-1 Tat transactivates the LTR dependent β-galactosidase enzyme to express higher than normal levels of β-galactosidase. […] At 48 hours or 6 days post infection, plates are aspirated, and PBS is added to each well. Gal-screen reagent (Tropix, Bedford, MA) is then added per the manufacturer's instructions for chemiluminescent detection of β-galactosidase activity and incubated at room temperature for 90 minutes. The resulting chemiluminescence signal is then read using a Microbeta Trilux luminescence reader (PerkinElmer/Wallac).
Percent inhibition of virus replication and percent cell viability at each concentration are calculated using an in-house computer program. […] Raw data for both antiviral activity and cytotoxicity with analyzed/tabulated data are provided in a printout summarizing the individual compound activity. For dose-response testing, a graphical representation of the data is also provided.

CXCR4 = target: T1, CXCR4 (Homo sapiens, UniProt P61073); experiment: Inhibition of SDF-1α-mediated calcium flux in CXCR4-expressing CEM cells; assay type: cell-based; conditions: for IC50: read-out: CEM SDF-1 Ca2+ Flux IC50
T1 construct: CXCR4-expressing CEM cells; endogenous in cells; host or cells: CEM cells
T1 sequence (P61073 whole entry): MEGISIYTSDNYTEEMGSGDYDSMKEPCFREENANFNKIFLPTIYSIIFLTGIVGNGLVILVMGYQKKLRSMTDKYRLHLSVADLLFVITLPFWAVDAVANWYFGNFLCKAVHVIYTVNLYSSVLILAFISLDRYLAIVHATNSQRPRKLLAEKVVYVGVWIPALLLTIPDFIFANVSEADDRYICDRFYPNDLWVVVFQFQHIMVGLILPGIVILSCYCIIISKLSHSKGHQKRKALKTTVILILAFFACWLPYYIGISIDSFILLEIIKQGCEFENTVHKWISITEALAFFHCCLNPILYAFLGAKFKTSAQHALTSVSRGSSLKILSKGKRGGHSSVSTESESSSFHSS
Procedure: CXCR4- expressing CEM cells were loaded with Fluo-4, washed, and pre- incubated with the indicated concentrations of test compounds for 10 min.

Jurkat cells = experiment: M1 peptide-induced apoptosis in Jurkat cultures (TUNEL); assay type: cell-based, human
Procedure: (A) Fluorescent microscopy images of Jurkat cultures stained via TUNEL. (B) TUNEL stained cells were counted and quantified. Fluorescent microscopy images were arranged with Adobe photoshop 6.0 software and analyzed by Image-Pro 6.3 software (Media Cybernetics, Silver Spring, MD).
as §1

[4] = Homo sapiens, Jurkat, read-out: EC50 against M1-mediated apoptosis in Jurkat cells
[5] = MDA-MB-231, 24 h, read-out: MDA-MB-231 Depolarization EC50
[6] = Human immunodeficiency virus 1, MAGI, read-out: HIV-1IIIB MAGI IC50
[7] = Human immunodeficiency virus 1, MAGI-CCR5/CXCR4 cells, β-galactosidase reporter, read-out: HeLa HIV-1IIIB MAGI IC50
[8] = Homo sapiens, Jurkat, 24 h, concentration inhibiting M1-induced mitochondrial depolarization by 50%, 10 ng/mL M1, 24 h, read-out: Jurkat M1 Inhibition EC50
[9] = MDA-MB-231, read-out: EC50 depolarization/apoptosis of MDA-MB-231 cells

Compound	EC50 (MDA-MB-231 cells [2]; [5]) [µM]	IC50 (HIV-1IIIB; [7]) [µM]	EC50 [1, 8] [µM]	IC50 (CXCR4) [µM]	further results
Cc1cn([C@H]2C[C@H](N=[N+]=[N-])[C@@H](CO)O2)c(=O)[nH]c1=O [AZT, reference compound]					protection against M1 (control drugs) [1]: did not confer protection; depolarization of MDA-MB-231 cells in dose response (qualitative) (MDA-MB-231 cells [2]): No depolarization
NC(=O)NCCCCN(C[C@H]1Cc2ccccc2CN1)[C@H]1CCCc2cccnc21 [Compound 1]	0.0008		0.0003	0.004	IC50 (HIV-1IIIB; Human immunodeficiency virus 1, MAGI, read-out: HeLa HIV-1IIIB MAGI IC50): 0.21 µM
c1ccc(CNCCCCN(C[C@H]2Cc3ccccc3CN2)[C@H]2CCCc3cccnc32)nc1 [Compound 2]					Apoptosis (%) (MDA-MB-231 cells [3]): 93%
NCCCCN(C[C@H]1Cc2ccccc2CN1Cc1cnccn1)[C@H]1CCCc2cccnc21 [Compound 3]	0.015	0.79	0.0035	0.11	inhibition at 100 µM (MDA-MB-231 cells [2]): ≤ 65%
NCCCCN(C[C@H]1Cc2ccccc2CN1Cc1ccncn1)[C@H]1CCCc2cccnc21 [Compound 4]	> 100	0.003		7.7	EC50 [1, 4]: 0.052 µM; inhibition at 100 µM (MDA-MB-231 cells [2]): ~20%; depolarization of MDA-MB-231 cells (qualitative) (MDA-MB-231 cells [2]): failed to depolarize; depolarization/apoptosis of MDA-MB-231 cells (qualitative) (MDA-MB-231 cells [2]): no apoptosis; also recorded: failed to depolarize; depolarization/apoptosis of MDA-MB-231 cells (qualitative) (MDA-MB-231 cells [2]; listed as compound 4): no effect; IC50 (HIV-1IIIB; [6]): < 0.1 µM
NCCCN(C[C@@H]1CN(Cc2ccccc2)CCN1)[C@H]1CCCc2cccnc21 [Compound 5]	0.00039	0.03	0.01	0.19	
CN(C[C@@H]1CN(Cc2ccccc2)CCN1)[C@H]1CCCc2cccnc21 [Compound 6]	10	0.85		3.3	EC50 [1, 4]: 0.053 µM; inhibition at 100 µM (MDA-MB-231 cells [2]): ≤ 65%; depolarization of MDA-MB-231 cells (qualitative) (MDA-MB-231 cells [2]): failed to depolarize; IC50 (HIV-1IIIB; [6]): < 0.1 µM
CN(C[C@@H]1CN(Cc2ccc(C(F)(F)F)cc2)CCN1)[C@H]1CCCc2cccnc21 [Compound 7]	85	8.01	12.7	> 50	
c1ccc(Cc2cn[nH]c2C2CCN(Cc3ccncc3)CC2)cc1 [Compound 8]	0.028	0.78	1.1		EC50 (MDA-MB-231 cells [2]; [9]): < 0.1 µM; CXCR4 functional response in calcium flux assay (qualitative) (CXCR4): no measurable CXCR4 functional response
CC1(C)CN2C(CSC(=NC3CCCCC3)NC3CCCCC3)=CSC2=N1 [IT1t, reference compound]	0.00625	0.01			EC50 [1, 4]: < 0.1 µM; EC50 ([1]; concentration inhibiting M1-induced mitochondrial depolarization by 50%, 10 ng/mL M1, 24 h, listed as It1t, read-out: Jurkat M1 Inhibition EC50): 0.0007 µM; EC50 ([1]; concentration inhibiting M1-induced mitochondrial depolarization by 50%, 10 ng/mL M1, 24 h, read-out: Jurkat M1 Inhibition EC50): ≤ 1 µM; protection from M1-mediated apoptosis (Jurkat cells; prophylactic 50 nM, then M1): complete protection
Maraviroc [reference compound]					protection against M1 (control drugs) [1]: did not confer protection; depolarization of MDA-MB-231 cells in dose response (qualitative) (MDA-MB-231 cells [2]): No depolarization
TNAACAWLEAQ [Compound M1, pro-apoptotic peptide, residues 50–60 of HIV-1 Nef]					apoptosis induction in Jurkat cultures by peptide (Jurkat cells; 10 ng/mL, 24 h, no antagonist): displayed apoptosis

More lines, main results first:

EC50 (MDA-MB-231 cells [2]; [5]) [µM]	IC50 (HIV-1IIIB; [7]) [µM]	EC50 [1, 8] [µM]	IC50 (CXCR4) [µM]	Compound	further results
0.123	0.002			c1cc(CN2CCCNCCNCCCNCC2)ccc1CN1CCCNCCNCCCNCC1 [AMD3100, reference compound]	EC50 [1, 4]: 0.473 µM; Depolarization (%) (MDA-MB-231 cells [2]; Figure 8A, JC-1 staining): 91%; depolarization of MDA-MB-231 cells in dose response (qualitative) (MDA-MB-231 cells [2]): significant depolarization; Apoptosis (%) (MDA-MB-231 cells [3]): 89.5%; IC50 (HIV-1IIIB; [6]): 0.002 to 0.005 µM
0.081	> 10	12	> 10	c1cnc(NCc2ccc(CNc3ncccn3)cc2)nc1 [MSX-122, reference compound]	EC50 (MDA-MB-231 cells [2]; [9]): < 0.1 µM; CXCR4 functional response in calcium flux assay (qualitative) (CXCR4): no measurable CXCR4 functional response

Reference: PMC5908301, “Small molecule CXCR4 antagonists block the HIV-1 Nef/CXCR4 axis and selectively initiate the apoptotic program in breast cancer cells” (Oncotarget, 2018)
